# Where two headings read alike, the source gives them in different places.
# What was measured:
# [1] = test system: Escherichia coli (ATCC 25922); assay: Time kill study, Example 33 (0 to 5 min); assay type: cell-based; conditions: 1×MIC
# Procedure, shortened: (§1)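 CLSI time-kill: suspension + compound solution, 1:1 by volume. Sampled 0 min, 30 sec, 1 min, 5 mins; diluted in test medium, streaked on agar. Colonies counted at 24 to 48 hrs; read-out Log10 CFU/mL.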
# [2] = test system: Pseudomonas aeruginosa (ATCC 27853); assay: Time kill study, Example 33 (0 to 5 min); assay type: cell-based; conditions: 1×MIC
# Procedure, shortened: as §1
# [3] = test system: Staphylococcus aureus (ATCC 29213); assay: Time kill study, Example 33 (0 to 5 min); assay type: cell-based; conditions: 1×MIC
# Procedure, shortened: as §1
# [4] = test system: Candida albicans (ATCC 90029); assay: Time kill study, Example 33 (0 to 5 min); assay type: cell-based; conditions: 1×MIC
# Procedure, shortened: as §1
# [5] = test system: Aspergillus niger (CMCC 98003); assay: Time kill study, Example 33 (0 to 5 min); assay type: cell-based; conditions: 1×MIC
# Protocol: Thirty compounds were tested for antimicrobial activity using standard procedures and standard strains for both the minimum inhibitory concentration (MIC) assay and a time kill study. Both the MIC assay and the time kill study were performed according to Clinical and Laboratory Standards Institute (CLSI) guidelines. Three bacteria strains, Escherichia coli (ATCC 25922), Pseudomonas aeruginosa (ATCC 27853), Staphulococcus aureus (ATCC 29213), and two fungus strains, Candida albicans (ATCC 90029) and Aspergillus niger (CMCC 98003), were used in the experiments.
# The viable counts in Log10 CFU/mL at each time point were recorded.
# Time kill studies. Strain suspensions were prepared as described above for the MIC test, and strain suspensions and compound solutions were mixed in the same volume. Samples were removed at specified times including 0 min, 30 sec, 1 min and 5 mins, were diluted in the test medium and streaked on agar. Colonies were counted after 24 to 48 hrs of incubation.
# The MIC values for thirty compounds against Escherichia coli, Pseudomonas aeruginosa, Staphulococcus aureus, Candida albicans, and Aspergillus niger were recorded and are presented in Table 3 and Table 4.
# [6] = Solubility (Sol., Table 1); assay type: physicochemical
# [7] = pH (Table 1); assay type: physicochemical
# [8] = test system: Aspergillus niger (CMCC 98003); assay: Minimum inhibitory concentration (MIC) assay, Example 33; assay type: cell-based; conditions: Aspergillus niger
# Procedure, shortened: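 Conidia gently probed from sporulating colonies into RPMI 1640, set to 0.09-0.13 at 530 nm, then diluted 1:50 and mixed 1:2 with 2-fold serially diluted compounds. Following CLSI guidelines, incubation was at 35 °C before the MIC was recorded.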
# [9] = test system: Staphylococcus aureus; assay: Extended time kill study, Example 34 (0 to 24 h); assay type: cell-based
# Procedure, shortened: (§2)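 Strain suspensions prepared as for MIC testing were mixed 1:1 with compound solution at higher multiples of MIC. Samples taken over 0 to 24 h were diluted in test medium and plated on agar, and colonies were counted after 24–48 h incubation.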
# [10] = test system: Pseudomonas aeruginosa; assay: Extended time kill study, Example 34 (0 to 24 h); assay type: cell-based
# Procedure, shortened: as §2
compound,measurement,setting,value
"CCCCCCCCCCCCOC(=O)C(C)NCCN(CC)CC.Cl (stereo not shown) [Nex-62, Dodecyl 2-((2-(diethylamino)ethyl)amino)propanoate dihydrochloride]","Viable counts, Escherichia coli time kill study",[1]; 0.5 min,4.78 Log10 CFU/mL
same,"Viable counts, Escherichia coli time kill study",[1]; 1 min,5.02 Log10 CFU/mL
same,"Viable counts, Escherichia coli time kill study",[1]; 5 min,3.82 Log10 CFU/mL
same,"Viable counts, Escherichia coli time kill study",[1]; time 0,4.82 Log10 CFU/mL
same,"Viable counts, Pseudomonas aeruginosa time kill study",[2]; 0.5 min,4 Log10 CFU/mL
same,"Viable counts, Pseudomonas aeruginosa time kill study",[2]; 1 min,<3.70 Log10 CFU/mL
same,"Viable counts, Pseudomonas aeruginosa time kill study",[2]; 5 min,<3.52 Log10 CFU/mL
same,"Viable counts, Pseudomonas aeruginosa time kill study",[2]; time 0,5.52 Log10 CFU/mL
same,"Viable counts, Staphylococcus aureus time kill study",[3]; 0.5 min,6.32 Log10 CFU/mL
same,"Viable counts, Staphylococcus aureus time kill study",[3]; 1 min,6.35 Log10 CFU/mL
same,"Viable counts, Staphylococcus aureus time kill study",[3]; 5 min,6.31 Log10 CFU/mL
same,"Viable counts, Staphylococcus aureus time kill study",[3]; time 0,6.34 Log10 CFU/mL
same,"Viable counts, Candida albicans time kill study",[4]; 0.5 min,5.37 Log10 CFU/mL
same,"Viable counts, Candida albicans time kill study",[4]; 1 min,5.18 Log10 CFU/mL
same,"Viable counts, Candida albicans time kill study",[4]; 5 min,5.16 Log10 CFU/mL
same,"Viable counts, Candida albicans time kill study",[4]; time 0,5.12 Log10 CFU/mL
same,"Viable counts, Aspergillus niger time kill study",[5]; 0.5 min,5.32 Log10 CFU/mL
same,"Viable counts, Aspergillus niger time kill study",[5]; 1 min,5.21 Log10 CFU/mL
same,"Viable counts, Aspergillus niger time kill study",[5]; 5 min,5.02 Log10 CFU/mL
same,"Viable counts, Aspergillus niger time kill study",[5]; time 0,5.27 Log10 CFU/mL
same,Sol.,[6],48%
same,pH,[7],0.73
same,MIC,"[8]; CMCC98003, Table 19 summary, read-out: MIC",12.5 µg/mL
same,MIC,"[8]; CMCC98003, n = 1, read-out: MIC Aspergillus niger",12.5 µg/mL
same,MIC,"[8]; CMCC98003, n = 2, read-out: MIC Aspergillus niger",12.5 µg/mL
same,"Viable counts, Staphylococcus aureus time kill study","[9]; 1 × MIC, 1 h",6.00 Log10 CFU/mL
same,"Viable counts, Staphylococcus aureus time kill study","[9]; 1 × MIC, 2 h",5.66 Log10 CFU/mL
same,"Viable counts, Staphylococcus aureus time kill study","[9]; 1 × MIC, 4 h",4.70 Log10 CFU/mL
same,"Viable counts, Staphylococcus aureus time kill study","[9]; 1 × MIC, 6 h",4.48 Log10 CFU/mL
same,"Viable counts, Staphylococcus aureus time kill study","[9]; 1 × MIC, 24 h",<1 Log10 CFU/mL
same,"Viable counts, Staphylococcus aureus time kill study","[9]; 1×MIC, time 0",6.23 Log10 CFU/mL
same,"Viable counts, Staphylococcus aureus time kill study","[9]; 2 × MIC, 1 h",5.30 Log10 CFU/mL
same,"Viable counts, Staphylococcus aureus time kill study","[9]; 2 × MIC, 2 h",<3 Log10 CFU/mL
same,"Viable counts, Staphylococcus aureus time kill study","[9]; 2 × MIC, 4 h",<3 Log10 CFU/mL
same,"Viable counts, Staphylococcus aureus time kill study","[9]; 2 × MIC, 6 h",<3 Log10 CFU/mL
same,"Viable counts, Staphylococcus aureus time kill study","[9]; 2 × MIC, 24 h",<1 Log10 CFU/mL
same,"Viable counts, Staphylococcus aureus time kill study","[9]; 2 × MIC, time 0",6.25 Log10 CFU/mL
same,"Viable counts, Staphylococcus aureus time kill study","[9]; 4 × MIC, 1 h",5.30 Log10 CFU/mL
same,"Viable counts, Staphylococcus aureus time kill study","[9]; 4 × MIC, 2 h",<3 Log10 CFU/mL
same,"Viable counts, Staphylococcus aureus time kill study","[9]; 4 × MIC, 4 h",<3 Log10 CFU/mL
same,"Viable counts, Staphylococcus aureus time kill study","[9]; 4 × MIC, 6 h",<3 Log10 CFU/mL
same,"Viable counts, Staphylococcus aureus time kill study","[9]; 4 × MIC, 24 h",<1 Log10 CFU/mL
same,"Viable counts, Staphylococcus aureus time kill study","[9]; 4 × MIC, time 0",6.20 Log10 CFU/mL
same,"Viable counts, Pseudomonas aeruginosa time kill study","[10]; 1 × MIC, 1 h",<1 Log10 CFU/mL
same,"Viable counts, Pseudomonas aeruginosa time kill study","[10]; 1 × MIC, 2 h",<1 Log10 CFU/mL
same,"Viable counts, Pseudomonas aeruginosa time kill study","[10]; 1 × MIC, 4 h",<1 Log10 CFU/mL
same,"Viable counts, Pseudomonas aeruginosa time kill study","[10]; 1 × MIC, 6 h",<1 Log10 CFU/mL
same,"Viable counts, Pseudomonas aeruginosa time kill study","[10]; 1 × MIC, 24 h",<1 Log10 CFU/mL
same,"Viable counts, Pseudomonas aeruginosa time kill study","[10]; 1×MIC, time 0",5.20 Log10 CFU/mL
same,"Viable counts, Pseudomonas aeruginosa time kill study","[10]; 2 × MIC, 1 h",<1 Log10 CFU/mL
same,"Viable counts, Pseudomonas aeruginosa time kill study","[10]; 2 × MIC, 2 h",<1 Log10 CFU/mL
same,"Viable counts, Pseudomonas aeruginosa time kill study","[10]; 2 × MIC, 4 h",<1 Log10 CFU/mL
same,"Viable counts, Pseudomonas aeruginosa time kill study","[10]; 2 × MIC, 6 h",<1 Log10 CFU/mL
same,"Viable counts, Pseudomonas aeruginosa time kill study","[10]; 2 × MIC, 24 h",<1 Log10 CFU/mL
same,"Viable counts, Pseudomonas aeruginosa time kill study","[10]; 2 × MIC, time 0",5.25 Log10 CFU/mL
same,"Viable counts, Pseudomonas aeruginosa time kill study","[10]; 4 × MIC, 1 h",<1 Log10 CFU/mL
same,"Viable counts, Pseudomonas aeruginosa time kill study","[10]; 4 × MIC, 2 h",<1 Log10 CFU/mL
same,"Viable counts, Pseudomonas aeruginosa time kill study","[10]; 4 × MIC, 4 h",<1 Log10 CFU/mL
same,"Viable counts, Pseudomonas aeruginosa time kill study","[10]; 4 × MIC, 6 h",<1 Log10 CFU/mL
same,"Viable counts, Pseudomonas aeruginosa time kill study","[10]; 4 × MIC, 24 h",<1 Log10 CFU/mL
same,"Viable counts, Pseudomonas aeruginosa time kill study","[10]; 4 × MIC, time 0",5.23 Log10 CFU/mL
